Consider 2 compounds from patent publication US20220305003A1, “METHODS OF TREATING CANCER WITH AN INHIBITOR OF ZNF827” (CHILDREN'S MEDICAL RESEARCH INSTITUTE, priority 2019, published 2022).

What all share (format): cell-based
For one data set, the system named is U-2 OS cells. Description: Sister chromatid exchange (SCE) assay in U-2 OS. The following applies: topotecan 2 μg/mL 1 hr. Here is the method:
For the SCE assay, 20-25% confluent cells were cultured in fresh media supplemented with 7.5 μM […] (BrdU) and 2.5 μM BrdC (BrdU:BrdC 3:1 ratio; Sigma-Aldrich) for 32-48 hours depending on the mitotic index of the cell line. Cell cultures were treated with 100 ng/mL colcemid for the last 4 hours of incubation to accumulate mitotic cells. Cells were harvested by trypsinisation and centrifugation, and then incubated in hypotonic buffer for 10 minutes at 37° C. Swollen cells were fixed by gradually adding 1 mL of fresh ice-cold fixative (methanol/acetic acid 3:1), mixing by inversion and incubating on ice for 5 minutes. Cells were then collected by centrifugation at 1200 rpm for 8 minutes. 10 mL ice cold fixative was added to resuspend the cells followed by 5 minutes incubation on ice and centrifugation at 1200 rpm for 8 minutes. This fixing step was repeated another two times. Fixed cells were then resuspended in 500-1000 μL of ice-cold fixative, and dropped onto clean, dry microscope slides (HDS Surefrost, 50-100 μL cell solution per slide). To drop chromosomes, a clean dry slide was held over a 75° C. water bath, and the cell solution was dropped from a pipette onto the slide, which was quickly flipped and held close to the surface of the water bath for 5 seconds. […]

The nature of a further data set: EdU flow cytometry. The following applies: EdU pulse 1 hour. Here is the method:
Using EdU flow cytometry (5-ethynyl-2′-deoxyuridine) is a thymidine analogue which is incorporated into DNA during active DNA synthesis), the effects of ZNF827 depletion on cell cycle progression, especially on DNA replication, were examined.
EdU flow cytometry was performed with the Click-iT EdU flow cytometry kit (ThermoFisher Scientific) according to manufacturer's instructions. Briefly cells were pulsed with EdU for 1 hour at 37° C. and harvested by trypsinisation and centrifugation at 1000 rpm for 5 minutes. Cells were then fixed and labelled with Alex Fluor 647 with the flow cytometry kit following the manufacturer's protocol. For DNA content labelling, the fixed cells were treated with 0.5 mg of RNase (Sigma) and 25 μg of propidium iodide at 37° C. for 30 minutes. Labelled cells were analysed using the BD FACSCanto Flow Cytometer (BD Biosciences) containing lasers to excite Alexa Fluor 647 labelled EdU and propidium iodide. Between 10 000-15 000 events were collected at an approximate flow rate of 200 events/second. Data analysis was conducted using FlowJo 7.
Background: A flow cytometer gives signals particle by particle.

A further data set has as its system HT1080 FUCCI cells. Description: Live cell imaging of cell cycle in FUCCI cells. Here is the method:
To further characterise the impact of ZNF827 on the cell cycle, live cell imaging was conducted with HT1080 FUCCI cells, to monitor cell progression through the cell cycle in real-time following ZNF827 depletion. The FUCCI (fluorescence ubiquitination cell cycle indicator) cells were stably transfected with fluorescence-labelled cell cycle-regulated proteins, geminin (labelled by GFP) and Cdt1 (labelled by RFP), which are only expressed during specific phases of the cell cycle (FIG. 9c). Their expressions are used to classify cells by cell cycle phase in a live cell setting.
HT1080 FUCCI cells were seeded in glass bottom 12-well plates (MakTek Corporation) the day before imaging at 30% confluency, to ensure that cells were actively cycling for the duration of the experiment. Media was replaced with phenol red free DMEM (Gibco) supplemented with 10% FCS and drug treatment immediately before transferring the plate to the microscope chamber. Imaging was performed on the Cell Observer Widefield Microscope (Zeiss) using a 20× objective at 37° C. with 10% CO2 in a XLmulti S1 full enclosure chamber. Cells were incubated in the XLmulti S1 full enclosure chamber for 2 hours prior to imaging. Three to four positions per well were captured with AxioCam (Zeiss) 506 Mono using ZEN software (Carl Zeiss) with images taken every 6 minutes for 60 hours. More than 15 cells were analysed at each position for each condition to confirm reproducibility.

[1] abbreviates: 72 hr siRNA knockdown in conjunction with topotecan 2 μg/mL 1 hr.

Regarding `CC[C@@]1(O)C(=O)OCc2c1cc1n(c2=O)Cc2cc3c(CN(C)C)c(O)ccc3nc2-1` [topotecan], in the data set with U-2 OS cells, the “sister chromatid exchanges (SCEs)” value is listed as “drastic induction of SCEs”.
Regarding “siZNF827: Stealth RNAi siRNA ZNF827HSS135819 duplex oligoribonucleotides (Invitrogen), SEQ ID NO: 12 and 13 (chain 1 GGGCAGUCUUCUGGCUGAGAAAUCA; chain 2 UGAUUUCUCAGCCAGAAGACUGCCC; listed as RNA, further chemistry not given here)”, the “cell cycle distribution (EdU)” value in the data set “EdU flow cytometry” is “conspicuous G1 arrest and a significant reduction of S phase cells”. For the same compound, in the data set with HT1080 FUCCI cells (72 hr siRNA knockdown alone), the “G1 duration / G1 arrest” value is “strong G1 arrest comparable to topotecan treatment” and the “S/G2-M duration / G2/M arrest” value is recorded as “no impact on G2/M by itself”. In the data set on HT1080 FUCCI cells (setting [1]), the “G1 duration / G1 arrest” value is on record as “further exacerbated G1 arrest” and the “S/G2-M duration / G2/M arrest” value is on record as “significant decrease in topotecan induced G2/M arrest”.
